Patent publication US20130136721A1, “Compositions and Methods of Generating a Differentiated Mesodermal Cell” (THE JOHNS HOPKINS UNIVERSITY, priority 2010, published 2013)
“Also recorded” adds a separate entry of the source.

Key:
Type in all cases: cell-based, human
H9 hESC = assay: Beating hEB assay (contracting hEB after forced aggregation cardiac differentiation); conditions: for effect on cardiac differentiation, phase 2 medium: supplement in d0-d2 medium; for effect on cardiac differentiation, phase 2 medium / effect on cardiac differentiation, phase 3 medium: contracting hEB d9; for effect on cardiac differentiation, phase 3 medium: supplement in d2-d4 medium; for effect on cardiac differentiation, phase 4 medium: supplement in d4 onwards medium
Source text: The cardiac differentiation protocol was divided into four distinct phases for optimization (FIG. 3A): phase 1: uniform undifferentiated growth; phase 2: hEB formation/mesoderm induction; phase 3: hEB cardiac specification; phase 4: contracting cardiomyocyte development. […] After an initial round of optimizations had been completed, optimizations was repeated a second time to account for the new media formulations and then a third time to optimize the final media formulation. In some cases fourth and fifth repeats were performed to improve the statistical power of the results. For each variable tested, the bell-curve distribution of dose-response was determined. Results shown are averages of the 2nd-5th replicates (FIG. 2B).
For forced aggregation hEB differentiations, confluent hESC or hiPSC which had been grown on a commercially available extracellular matrix, Geltrex (Invitrogen) as monolayers for 3 to 13 passages were passaged with TrypLE Select and seeded at 2.5×10^6 per T25 flask. After 24 hours growth, cells were washed with PBS and treated with room temperature TrypLE Select for 1 minute at 37° C. Cells were seeded at 5000 cells per well in 96-well V-bottom uncoated plates (249952, NUNC) in 100 μL per well RPMI+PVA medium consisting of RPMI Media 1640 (with L-Glutamine), 4 mg mL-1 polyvinyl alcohol (P8136, Sigma, dissolved in RPMI at 4° C. for at least 72 hours, mixing by inversion every day), 1% chemically defined lipid concentrate, 10 μg mL-1 recombinant human insulin (Sigma), 400 μM 1-thioglycerol (Sigma), 25 ng mL-1 BMP4 and 5 ng mL-1 FGF2 (both from R&D systems), 1 μM Y-27632 (Calbiochem). This medium is not stable and was made fresh for each experiment. After 48 hours (on day 2) medium was aspirated with a Costar 8-channel aspirator (Corning) and replaced with RPMI+FBS medium consisting RPMI Media 1640, 20% characterized FBS (Hyclone), 400 μM 1-thioglycerol. On day 4 media was changed to RPMI+PVA without growth factors and hEB were transferred to 96-well U-bottom tissue culture treated plates (650180, Greiner Bio-One). Media was changed on d7 and every 3 days afterwards. hEB were visually assessed for contraction on d9 using a Nikon Eclipse Ti inverted tissue culture microscope with a TOKAI-HIT heated stage (Nikon). Images were captured using NIS-Elements (Nikon). […] For traditional cardiac differentiations using FBS, undirected differentiation was performed as previously described (Kehat et al. J Clin Invest 108, 407-414 (2001)): briefly, confluent H9 hESC grown as colonies on MEF were treated with collagenase IV for 5 minutes at 37° C. then washed from the plate using a 5 mL pipette. Cell clusters were then transferred to Petri dishes in 20% FBS medium for 7 days. hEB were then transferred to gelatin coated tissue culture plates. Media was changed every 3 days.
One single replicate consists of one 96-well plate. Repeat replicates were performed 1-4 months apart using a different vial of cells. Each experiment was repeated at least 3 times representing at least 288 hEB. Total number of hEB assessed in this work exceeds 80,000. Wells in which no hEB was detected due to pipeting error were excluded and accounted for approximately 1-5% of wells. P-values were established using unpaired two-tailed Student's t-test.

[1] = test system: hESC-derived cardiomyocyte monolayer; assay: Voltage macromapping of cardiomyocyte monolayer (action potential duration); conditions: for effect on action potential: 20 μM isoproterenol or 100 μM pinacidil added to cardiomyocyte monolayers or hEB; for action potential duration: 0.67 Hz pacing, mean±s.d., 20 μM isoproterenol or 100 μM pinacidil, control 363±137 ms
Description: (§1) Cardiac markers and structural protein expression was assessed using immunofluorescence staining. […] To assess quality of hPSC-derived cardiomyocytes that were generated using this method and suitability for future applications such as cardiotoxicity testing, the electrophysiological properties were assessed via optical mapping. hEB were either mechanically dissected and plated onto fibronectin-coated glass coverslips for micromapping, or approximately 200 hEB were dissociated into single cells and plated in a 10 mm diameter area as a confluent monolayer for macromapping. hEB and monolayers were then stained with either voltage- or calcium-sensitive dye and optically mapped to visualize spontaneous activity and response to electrical field stimulation (FIG. 12A). […] To assess cardioactive drug responsiveness, 20 μM isoproterenol or 100 μM pinacidil was added to cardiomyocyte monolayers or hEB to test for beta-adrenergic stimulation response and the presence of functional KATP channels, respectively. […] Contracting hEB derived from the hiPSC line 6.2 were tested in the same manner and yielded similar results.
For optical micromapping (Weinberg et al., Methods Mol Biol 660, 215-237 (2010), contracting hEB were mechanically dissected, plated on fibronectin-coated glass coverslips and given at least 5 days to attach. hEB were then stained with either 10 μM Rhod-2-AM calcium dye for 20 minutes or 10 μM di-4-ANEPPS voltage dye for 5 minutes. After several rinses with Tyrode's solution (135 mM NaCl, 5.4 mM KCl, 1.8 mM CaCl2, 1 mM MgCl2, 0.33 mM NaH2PO4, 5 mM HEPES, and 5 mM glucose), hEB were incubated with 30 μM blebbistatin for 15 minutes to inhibit excitation-contraction coupling and subsequently prevent signal distortion due to motion artifact. The absence of hEB contraction was confirmed visually. hEB were then excited at 530 nm to visualize spontaneous activity and response to electrical field stimulation. Imaging of transmembrane potential (Vm) or intracellular calcium (Cai) was performed using an Andor iXon+860 electron multiplying charged coupled device (EMCCD) camera (128×128 pixels) at 490 Hz sampling rate. […] Macromapping of hESC-CM monolayers was performed using contact fluorescent imaging, in which maps of Vm were recorded by placing the monolayer directly on top of a bundle of 253 optical fibers 1 mm in diameter, arranged in a tightly packed, 17-mmdiameter hexagonal array. […] To analyze data, the individual recorded signals recorded were spatially filtered using a 5×5 box filter, temporally filtered using a 10 point median filter, baseline-corrected by subtraction of a fitted 3rd order polynomial, and range-normalized. […] Uniformity of APD was assessed by the coefficient of variation. […]

H9 hEB = assay: Voltage optical micromapping of contracting hEB (action potential duration); conditions: 20 μM isoproterenol, 4 hEB, mean±s.d., p≈0.01 paired t-test
Description: as §1, with “results. […]” for “results.”

Compound: IGF2: growth factor titrated between 1-100 ng mL-1
- effect on cardiac differentiation, phase 2 medium (H9 hESC): none were found to have the same potency as BMP4

Compound: TGFB
- effect on cardiac differentiation, phase 2 medium (H9 hESC): none were found to have the same potency as BMP4

Compound: C[C@@H](N)[C@H]1CC[C@H](C(=O)Nc2ccncc2)CC1 [Y-27632, reference compound]
- effect on cardiac differentiation, phase 2 medium (H9 hESC): further improved reproducibility and cardiac differentiation

Compound: FGF2: fibroblast growth factor 2
- effect on cardiac differentiation, phase 3 medium (H9 hESC): did not further enhance this phase; also recorded: did not enhance cardiac differentiation

Compound: OCC(O)CS (stereo not drawn) [1-thioglycerol]
- effect on cardiac differentiation, phase 2 medium (H9 hESC): resulted in high efficiency cardiac differentiation
- effect on cardiac differentiation, phase 3 medium (H9 hESC): most suitable antioxidant for this phase
- effect on cardiac differentiation, phase 4 medium (H9 hESC): essential for this d4+ phase

Compound: NC(=O)CC[C@H](N)C(=O)O [L-glutamine]
- effect on cardiac differentiation, phase 2 medium (H9 hESC): either did not further enhance differentiation or had negative effects on differentiation
- effect on cardiac differentiation, phase 3 medium (H9 hESC): did not enhance cardiac differentiation

Compound: CC(N/C(=N\C#N)Nc1ccncc1)C(C)(C)C (stereo not drawn) [pinacidil]
- effect on action potential [1]: shortening of the action potential
- action potential duration [1]: 257 ± 56 ms

Compound: WNT3A
- effect on cardiac differentiation, phase 2 medium (H9 hESC): none were found to have the same potency as BMP4

Compound: insulin: recombinant human insulin (Sigma)
- effect on cardiac differentiation, phase 3 medium (H9 hESC): completely abrogated cardiac specification; also recorded: completely ablated cardiac differentiation
- effect on cardiac differentiation, phase 4 medium (H9 hESC): did not effect this d4+ phase
- effect on cardiac differentiation, xeno- and serum-free d2-d4 medium (H9 hESC; supplement in serum-free d2-d4 medium): inhibited cardiac differentiation

Compound: CC(C)NCC(O)c1ccc(O)c(O)c1 (stereo not drawn) [isoproterenol]
- shortening of the mean APD (H9 hEB): 23 ± 8 ms
- effect on action potential [1]: shortening of the action potential
- action potential duration [1]: 262 ± 107 ms

Compound: O=C1O[C@H]([C@@H](O)CO)C(O)=C1O [L-ascorbic acid]
- effect on cardiac differentiation, phase 2 medium (H9 hESC): either did not further enhance differentiation or had negative effects on differentiation
- effect on cardiac differentiation, phase 3 medium (H9 hESC): Neither transferrin, L-ascorbic acid, lipids or NEAA enhanced this phase of differentiation

Compound: IGF1: growth factor titrated between 1-100 ng mL-1
- effect on cardiac differentiation, phase 2 medium (H9 hESC): none were found to have the same potency as BMP4
